Peptide text beside a SMILES is read from it.
Assays:
[1] = Acute IV pharmacokinetics; assay type: in vivo, rat (female Wistar); details: ESBP3 200μL (10 mg/mL) IV bolus, Wistar rats (n=8)
Method: Female Wistar rats (225–250 g, 8–12 weeks old) were observed and acclimatized for 2 weeks prior to running the studies. They were housed in a controlled environment with temperature at […] and 40–70% humidity. They were kept in an alternating 12-hour light/dark cycle, and food, and water was provided as pellets ad libitum. Female Wistar Rats were used for the pharmacokinetics and the drug clearance analysis from the blood. The two hydrogels (ESBP2 and ESBP3) at 10 mg/ml concentration were injected into the rats via the lateral tail vein. For subcutaneous implants, the substance was injected between the shoulder blades and above the lumbar vertebrae, 200 μL each, using a 25-gauge needle. The hydrogel bolus was prepared with 0.9% saline and was injected within 1–2 minutes. The volume injected was approximately 1% of the total body weight of the rat, which was calculated prior to the dosing. The initial blood draw was performed for baseline, and the subsequent blood collection was performed from the lateral vein using 25 g butterfly needles.
Rat blood samples were collected at 0, 5, 15, 30 minutes, and 1, 2, 4, 8, and 24 hours post-injection timepoints for Acute PK and were aliquoted out into heparinized tubes to prevent coagulation and stored on top of ice packs. Blood collected in K2EDTA anticoagulant tubes was processed to plasma frozen via centrifugation at 13000 RCF for 10 minutes at 4 °C and stored at −80 °C till analysis using HPLC. The body weight was recorded every day prior to the blood collection.

[2] = Stability testing by HPLC / LC-MS; assay type: physicochemical
Method: Chromatographic analyses were performed on an analytical high-pressure liquid chromatography system (HPLC) with MassLynx software (Version 4.1). Runs were carried out on a Zorbax C3 column (5 µm, 150 mm × 4.6 mm) with a 1.0 mL/min flow rate. The mobile phase A was 0.1% trifluoroacetic acid in MilliQ water and mobile phase B was 0.1% trifluoroacetic acid in acetonitrile. Gradients started with mobile phase A at 75% and ran at a 1% ramp to 65% mobile phase B. Samples were diluted using 3:7 ACN:MilliQ water to a concentration of 1.0 mg/mL and then passed through a 0.22 μm syringe filter before injecting 30 μL of the sample. The column and autosampler were maintained at 40 °C and 25 °C, respectively. A Waters 2487 UV detector monitored 215 nm, and mass spectra were collected from 50 to 3000 AMU. The capillary voltage was 3.00 kV, cone voltage was 30.00 V, extractor voltage was 3.00 V, RF lens voltage was 0.1 V, source temperature was 100 °C, cone gas flow was 50.0 L/h, and desolvation gas flow was 500 L/h[30],[88] for the electrospray source.
[…] The stability of peptide samples was then measured using HPLC[87].

CC[C@H](C)[C@H](NC(=O)[C@H](Cc1ccc(O)cc1)NC(=O)[C@@H](NC(=O)[C@H](CCCCN)NC(=O)[C@H](Cc1ccc(O)cc1)NC(=O)[C@H](CCC(N)=O)NC(=O)CNC(=O)[C@H](CCC(=O)O)NC(=O)[C@H](CC(C)C)NC(=O)[C@H](CO)NC(=O)[C@H](CC(C)C)NC(=O)[C@H](CO)NC(=O)[C@H](CC(C)C)NC(=O)[C@H](CO)NC(=O)[C@H](CC(C)C)NC(=O)[C@H](CO)NC(=O)[C@H](CC(C)C)NC(=O)[C@H](CO)NC(=O)[C@H](CC(C)C)NC(=O)[C@H](CO)NC(=O)[C@H](CCC(=O)O)NC(C)=O)[C@@H](C)O)C(=O)N[C@@H](CC(=O)O)C(=O)N[C@@H](CCCCN)C(=O)N[C@@H](CC(N)=O)C(=O)N[C@@H](CC(N)=O)C(=O)N[C@@H](Cc1c[nH]cn1)C(=O)N[C@@H](Cc1ccc(O)cc1)C(=O)N[C@@H](C)C(=O)N[C@@H](CCC(=O)O)C(=O)N[C@@H](CC(=O)O)C(=O)N[C@@H](CCC(=O)O)C(=O)N[C@@H](CCCNC(=N)N)C(=O)N[C@@H](Cc1ccc(O)cc1)C(=O)N[C@@H](CCCCN)C(N)=O [ESBP3] (Ac-ESLSLSLSLSLSLEGQYKTYIDKNNHYAEDERYK-NH2)
eliminated by [1]: ≤ 8 h | Cmax ([1]; female, rat, plasma, 2 mg, at 5 min, read-out: observed maximum concentration): ~550 µg/mL | AUC ([1]; female, rat, plasma, 2 mg, read-out: AUC): 395 µg·h/mL | stability of lyophilized peptide, in words ([2]; -20 °C, 4 °C, 25 °C and 37°C over 10 weeks, HPLC/LC-MS): exceptional | stability, in words ([2]; lyophilized form and in formulation at a variety of temperatures over 12 weeks, HPLC): excellent stability | degradation in aqueous formulation, in words ([2]; over 10 weeks, LC-MS): minimal
